# Results as given in publication PMC13002968 (Oncogenesis, 2026).
# pKd: −log10 of the molar value.
# Molecular target: programmed cell death protein 1 (PD-1) (Homo sapiens, UniProt Q15116)
# Experiment: SPR
# Format: binding
# Chain of programmed cell death protein 1 (PD-1) (Q15116 25-288): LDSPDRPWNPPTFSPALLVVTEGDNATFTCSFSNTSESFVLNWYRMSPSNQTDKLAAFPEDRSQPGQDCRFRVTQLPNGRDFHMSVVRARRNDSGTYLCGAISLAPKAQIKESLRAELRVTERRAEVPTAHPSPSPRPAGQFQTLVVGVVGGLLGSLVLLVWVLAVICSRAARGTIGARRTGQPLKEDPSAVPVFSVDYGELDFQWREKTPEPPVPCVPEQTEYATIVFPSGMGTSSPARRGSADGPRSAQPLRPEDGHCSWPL
structure (smiles),measurement,value
"C/C(O)=C(\C#N)C(=O)Nc1ccc(C(F)(F)F)cc1 [TER, teriflunomide]",pKd,8.83
